Consider three molecules from PMC10397248, “A novel N^6-Deoxyadenine methyltransferase METL-9 modulates C. elegans immunity via dichotomous mechanisms” (Cell Research, 2023).

For orientation: Km means the substrate concentration at which the rate is half of its maximum. Broadly, the kcat is the maximal rate divided by the concentration of active sites.

Data set [1] addresses mouse Mettl9 (recombinant GST-Mettl9) (Mus musculus, UniProt Q9EPL4). The data set can be described thus: in vitro DNA 6mA methylation, LC-MS/MS. Type of data set: biochemical. Particulars: biotin-ssDNA or bubbled DNA with GAGG motif 2 uM, SAM or d3-SAM 0.1 mM (which one only in supplement), pH 7.5, 2.5 mM MgCl2, 25 °C; methyl donor.
For data set [2], the target named is T1, METL-9 (recombinant GST-METL-9) (Caenorhabditis elegans, UniProt Q22123, N172K/D274G).
T1 sequence (Q22123 1-311 N172K/D274G): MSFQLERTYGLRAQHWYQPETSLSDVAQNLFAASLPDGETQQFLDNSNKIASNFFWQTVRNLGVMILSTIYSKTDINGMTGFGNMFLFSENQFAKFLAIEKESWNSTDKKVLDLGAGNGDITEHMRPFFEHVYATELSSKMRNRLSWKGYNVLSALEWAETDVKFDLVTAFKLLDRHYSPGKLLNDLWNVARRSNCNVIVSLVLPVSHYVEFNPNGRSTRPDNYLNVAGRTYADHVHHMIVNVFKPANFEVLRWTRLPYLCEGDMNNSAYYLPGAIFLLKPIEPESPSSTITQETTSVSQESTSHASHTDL
The data set can be described thus: in vitro DNA 6mA methylation, LC-MS/MS. Type of data set: biochemical. The following applies: biotin-ssDNA oligo 2 uM, d3-SAM 0.1 mM, HEPES pH 7.5, 2.5 mM MgCl2, 80 mM KCl, 20 °C; methyl donor; labelled compound.

Substrate in data set [3]: C[S+](CC[C@H](N)C(=O)O)C[C@H]1O[C@@H](n2cnc3c(N)ncnc32)[C@H](O)[C@@H]1O
The data set can be described thus: purified protein. Particulars: ssDNA oligo 5 uM, varied d3-SAM, HEPES pH 7.5, 2.5 mM MgCl2, 80 mM KCl, 20 °C, methyl donor, labelled compound.

mouse Mettl9 (recombinant GST-Mettl9), sequence (Q9EPL4 whole entry): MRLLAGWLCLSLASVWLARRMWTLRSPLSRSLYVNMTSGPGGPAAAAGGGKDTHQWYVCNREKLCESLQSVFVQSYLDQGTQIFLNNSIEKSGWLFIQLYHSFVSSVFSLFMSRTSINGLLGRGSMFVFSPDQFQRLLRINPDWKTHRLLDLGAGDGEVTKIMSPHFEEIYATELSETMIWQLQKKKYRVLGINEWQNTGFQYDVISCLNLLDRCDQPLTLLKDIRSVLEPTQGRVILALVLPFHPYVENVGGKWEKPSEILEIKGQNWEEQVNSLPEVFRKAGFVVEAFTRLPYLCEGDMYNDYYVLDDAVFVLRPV

Take `C[S+](CC[C@H](N)C(=O)O)C[C@H]1O[C@@H](n2cnc3c(N)ncnc32)[C@H](O)[C@@H]1O` (stereo partly shown) [SAM]: the “in vitro DNA 6mA methylation, LC-MS/MS” value in data set [1] was “mouse Mettl9 protein showed 6mA methyltransferase activity towards ssDNA and bubbled DNA”.

Regarding `C[S+](CC[C@H](N)C(=O)O)C[C@H]1O[C@@H](n2cnc3c(N)ncnc32)[C@H](O)[C@@H]1O` (stereo partly shown) [d3-SAM], the “in vitro DNA 6mA methylation, LC-MS/MS” value in data set [2] is given as “double mutant (M8 + M10, metl-9^mut) almost completely abolished the 6mA methyltransferase activity of METL-9”.

B1: METL-9 (recombinant GST-METL-9) (Caenorhabditis elegans) (protein)
chain: MSFQLERTYGLRAQHWYQPETSLSDVAQNLFAASLPDGETQQFLDNSNKIASNFFWQTVRNLGVMILSTIYSKTDINGMTGFGNMFLFSENQFAKFLAIEKESWNSTDKKVLDLGAGNGDITEHMRPFFEHVYATELSSKMRNRLSWKGYNVLSALEWAETDVKFDLVTAFNLLDRHYSPGKLLNDLWNVARRSNCNVIVSLVLPVSHYVEFNPNGRSTRPDNYLNVAGRTYADHVHHMIVNVFKPANFEVLRWTRLPYLCEGDMNNSAYYLPDAIFLLKPIEPESPSSTITQETTSVSQESTSHASHTDL
With B1, in data set [3], the Michaelis constant (Km) turned out to be 37.69 ± 3.75 µM and the turnover number (kcat) worked out at 0.00131 ± 5.83e-05 s⁻¹.
